Source: ChEMBL document CHEMBL1139555, “Discovery of potent and selective phenylalanine based dipeptidyl peptidase IV inhibitors” (Bioorg Med Chem Lett, 2005)

Assays:
Dipeptidyl peptidase 8 = Dipeptidyl peptidase 8 (Homo sapiens, UniProt Q6V1X1)
[1] = Plasma cearance of compound was determined in rat; assay type: ADME, organism-based; conditions: read-out: Clp
Dipeptidyl peptidase 4 = Dipeptidyl peptidase 4 (Homo sapiens, UniProt P27487)
[2] = Plasma half-life of compound was determined in rat; assay type: ADME, cell-free
Dipeptidyl peptidase 2 = Dipeptidyl peptidase 2 (Homo sapiens, UniProt Q9UHL4)
[3] = Oral bioavailability in rat; assay type: ADME, organism-based; conditions: in vivo
Dipeptidyl peptidase 9 = Dipeptidyl peptidase 9 (Homo sapiens, UniProt Q86TI2)
Sequence of Dipeptidyl peptidase 9 (Q86TI2 whole entry): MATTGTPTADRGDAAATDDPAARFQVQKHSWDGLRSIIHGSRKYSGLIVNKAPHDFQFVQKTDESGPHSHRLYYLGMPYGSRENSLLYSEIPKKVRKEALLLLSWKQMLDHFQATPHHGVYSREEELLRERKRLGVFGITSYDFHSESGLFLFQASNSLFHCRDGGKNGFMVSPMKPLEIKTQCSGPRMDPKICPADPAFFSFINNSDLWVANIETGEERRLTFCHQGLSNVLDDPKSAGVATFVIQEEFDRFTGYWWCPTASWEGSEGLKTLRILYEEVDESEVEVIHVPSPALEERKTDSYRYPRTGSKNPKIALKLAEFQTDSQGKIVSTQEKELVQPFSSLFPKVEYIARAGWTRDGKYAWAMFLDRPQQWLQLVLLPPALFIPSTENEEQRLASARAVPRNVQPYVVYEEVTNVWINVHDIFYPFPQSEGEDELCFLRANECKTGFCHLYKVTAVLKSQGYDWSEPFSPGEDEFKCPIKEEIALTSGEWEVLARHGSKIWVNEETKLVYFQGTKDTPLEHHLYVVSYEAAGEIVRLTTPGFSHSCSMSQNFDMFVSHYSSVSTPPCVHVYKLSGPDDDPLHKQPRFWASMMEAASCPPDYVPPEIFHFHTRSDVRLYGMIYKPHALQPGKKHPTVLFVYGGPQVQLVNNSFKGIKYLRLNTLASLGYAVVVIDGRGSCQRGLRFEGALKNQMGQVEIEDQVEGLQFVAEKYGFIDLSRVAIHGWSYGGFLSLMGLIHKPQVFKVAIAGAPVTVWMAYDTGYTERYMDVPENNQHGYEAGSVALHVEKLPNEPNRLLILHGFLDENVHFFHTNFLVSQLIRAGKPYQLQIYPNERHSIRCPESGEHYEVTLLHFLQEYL

[4] = target: Voltage-gated inwardly rectifying potassium channel KCNH2 (Homo sapiens, UniProt Q12809)
Sequence of Voltage-gated inwardly rectifying potassium channel KCNH2 (Q12809 whole entry): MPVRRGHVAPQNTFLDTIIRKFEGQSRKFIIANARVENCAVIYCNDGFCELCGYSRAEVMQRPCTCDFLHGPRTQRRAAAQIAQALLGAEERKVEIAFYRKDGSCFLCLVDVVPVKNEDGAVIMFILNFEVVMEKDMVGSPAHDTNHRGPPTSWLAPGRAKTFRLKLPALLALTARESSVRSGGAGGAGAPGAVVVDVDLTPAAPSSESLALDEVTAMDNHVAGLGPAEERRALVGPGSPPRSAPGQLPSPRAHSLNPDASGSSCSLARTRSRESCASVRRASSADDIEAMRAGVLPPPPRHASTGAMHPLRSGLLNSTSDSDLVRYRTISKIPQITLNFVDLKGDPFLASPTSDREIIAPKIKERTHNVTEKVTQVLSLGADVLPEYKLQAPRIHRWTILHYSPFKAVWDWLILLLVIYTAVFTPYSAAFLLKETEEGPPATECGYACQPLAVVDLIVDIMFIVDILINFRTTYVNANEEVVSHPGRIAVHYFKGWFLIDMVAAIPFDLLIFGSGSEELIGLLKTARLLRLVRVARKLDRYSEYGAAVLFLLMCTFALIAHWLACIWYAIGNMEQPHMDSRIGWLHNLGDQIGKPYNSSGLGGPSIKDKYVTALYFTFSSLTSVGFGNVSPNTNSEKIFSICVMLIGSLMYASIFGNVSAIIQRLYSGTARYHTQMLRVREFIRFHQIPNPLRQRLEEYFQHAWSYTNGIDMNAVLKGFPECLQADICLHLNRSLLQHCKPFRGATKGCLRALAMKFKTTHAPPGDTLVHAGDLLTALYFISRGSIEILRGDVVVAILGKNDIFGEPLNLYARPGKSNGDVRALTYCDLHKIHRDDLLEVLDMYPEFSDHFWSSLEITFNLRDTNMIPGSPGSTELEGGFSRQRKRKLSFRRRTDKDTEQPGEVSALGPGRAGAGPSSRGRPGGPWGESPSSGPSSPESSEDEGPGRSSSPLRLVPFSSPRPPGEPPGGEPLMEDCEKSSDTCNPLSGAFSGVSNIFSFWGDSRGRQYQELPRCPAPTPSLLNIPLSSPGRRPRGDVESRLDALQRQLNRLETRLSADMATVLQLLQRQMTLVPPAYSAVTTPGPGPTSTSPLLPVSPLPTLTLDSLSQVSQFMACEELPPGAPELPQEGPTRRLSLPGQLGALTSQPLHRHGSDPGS

Sequence of Dipeptidyl peptidase 4 (P27487 whole entry): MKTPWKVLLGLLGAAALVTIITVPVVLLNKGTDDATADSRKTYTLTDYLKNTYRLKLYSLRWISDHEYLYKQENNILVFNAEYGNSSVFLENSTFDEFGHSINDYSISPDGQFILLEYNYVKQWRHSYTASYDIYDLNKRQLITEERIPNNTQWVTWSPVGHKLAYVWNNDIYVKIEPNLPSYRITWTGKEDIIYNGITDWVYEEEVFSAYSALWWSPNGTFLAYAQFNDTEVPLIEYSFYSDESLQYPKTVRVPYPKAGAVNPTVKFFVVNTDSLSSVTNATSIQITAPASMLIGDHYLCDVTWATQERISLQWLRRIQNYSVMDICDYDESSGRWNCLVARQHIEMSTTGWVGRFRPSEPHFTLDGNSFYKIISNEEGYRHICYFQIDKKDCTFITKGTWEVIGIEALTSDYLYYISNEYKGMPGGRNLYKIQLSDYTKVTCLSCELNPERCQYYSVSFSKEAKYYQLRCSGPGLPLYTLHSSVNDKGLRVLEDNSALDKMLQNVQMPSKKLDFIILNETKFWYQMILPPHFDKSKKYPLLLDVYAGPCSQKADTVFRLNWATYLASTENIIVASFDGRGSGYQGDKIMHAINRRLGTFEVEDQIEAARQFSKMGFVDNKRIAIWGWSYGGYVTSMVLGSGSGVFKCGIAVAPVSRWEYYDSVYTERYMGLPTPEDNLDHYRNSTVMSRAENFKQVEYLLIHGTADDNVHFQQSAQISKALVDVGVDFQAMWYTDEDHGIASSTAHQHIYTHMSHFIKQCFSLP
Sequence of Dipeptidyl peptidase 8 (Q6V1X1 whole entry): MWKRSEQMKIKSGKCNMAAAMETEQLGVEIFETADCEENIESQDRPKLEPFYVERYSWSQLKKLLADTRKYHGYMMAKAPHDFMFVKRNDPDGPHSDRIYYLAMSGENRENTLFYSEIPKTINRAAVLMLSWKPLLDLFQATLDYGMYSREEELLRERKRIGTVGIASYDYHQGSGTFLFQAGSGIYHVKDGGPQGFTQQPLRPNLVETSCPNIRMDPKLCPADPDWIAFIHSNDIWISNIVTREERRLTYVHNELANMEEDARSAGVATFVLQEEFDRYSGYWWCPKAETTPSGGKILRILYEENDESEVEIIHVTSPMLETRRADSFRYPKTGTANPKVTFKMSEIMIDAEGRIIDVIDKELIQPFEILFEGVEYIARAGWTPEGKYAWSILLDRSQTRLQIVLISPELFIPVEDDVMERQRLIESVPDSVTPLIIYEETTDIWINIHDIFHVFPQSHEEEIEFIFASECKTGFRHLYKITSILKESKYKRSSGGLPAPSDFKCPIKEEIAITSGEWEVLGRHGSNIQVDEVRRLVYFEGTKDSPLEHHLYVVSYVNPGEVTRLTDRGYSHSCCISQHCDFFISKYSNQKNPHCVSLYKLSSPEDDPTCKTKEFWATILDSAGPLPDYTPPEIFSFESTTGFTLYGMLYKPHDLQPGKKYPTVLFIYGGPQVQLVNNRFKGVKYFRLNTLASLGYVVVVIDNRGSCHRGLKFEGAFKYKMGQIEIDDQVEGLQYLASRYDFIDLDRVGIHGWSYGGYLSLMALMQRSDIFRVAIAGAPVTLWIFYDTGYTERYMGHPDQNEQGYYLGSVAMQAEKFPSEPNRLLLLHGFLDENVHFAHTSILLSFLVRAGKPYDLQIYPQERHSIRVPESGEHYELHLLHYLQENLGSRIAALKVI

IC50 (Dipeptidyl peptidase 8) [µM] | clearance [1] [mL/min/kg] | IC50 (Dipeptidyl peptidase 4) [µM] | half-life [2] [min] | IC50 (Dipeptidyl peptidase 2) [µM] | bioavailability [3] [%] | IC50 (Dipeptidyl peptidase 9) [µM] | Compound | IC50 [4] [µM]
> 100 | 132 | 0.006 | 18 | 2.9 | 3.5 |  | C[C@@H](c1ccc(-c2cccc(-c3nn[nH]n3)c2)cc1)[C@H](N)C(=O)N1CC[C@H](F)C1.O=C(O)C(F)(F)F | 
> 100 | 50.8 | 0.056 | 24 | 9.2 | 2.3 | > 100 | C[C@@H](c1ccc(-c2cccc(C(=O)O)c2)cc1)[C@H](N)C(=O)N1CC[C@H](F)C1.O=C(O)C(F)(F)F | 
 |  |  | 132 |  |  |  | C[C@@H](c1ccc(-c2ccc(F)cc2)cc1)[C@H](N)C(=O)N1CC[C@H](F)C1.O=C(O)C(F)(F)F | 
> 100 |  | 0.25 |  | 3.6 |  | > 100 | C[C@@H](c1ccc(Br)cc1)[C@H](N)C(=O)N1CC[C@H](F)C1 | 
> 100 |  | 0.17 |  | 5.9 |  | > 100 | C[C@@H](c1ccc(Cl)cc1)[C@H](N)C(=O)N1CC[C@H](F)C1 | 
> 100 |  | 54 |  | > 100 |  | > 100 | C[C@@H](c1ccc(F)cc1C(F)(F)F)[C@H](N)C(=O)N1CC[C@H](F)C1 | 
> 100 |  | 0.14 |  | 3.6 |  | > 100 | C[C@@H](c1ccc(-c2cccc(S(N)(=O)=O)c2)cc1)[C@H](N)C(=O)N1CC[C@H](F)C1 | 
> 100 |  | 1.1 |  | 19 |  | > 100 | C[C@@H](c1ccccc1F)[C@H](N)C(=O)N1CC[C@H](F)C1 | 
> 100 |  | 3.7 |  | 7.8 |  | > 100 | C[C@@H](c1cc(F)cc(F)c1)[C@H](N)C(=O)N1CC[C@H](F)C1 | 
> 100 |  | 0.77 |  | 14 |  | > 100 | COc1ccc([C@H](C)[C@H](N)C(=O)N2CC[C@H](F)C2)cc1 | 
> 100 | 23.9 | 0.003 | 66 | 1.1 | 4.2 | > 100 | C[C@@H](c1ccc(-c2cccc(-c3noc(O)n3)c2)cc1)[C@H](N)C(=O)N1CC[C@H](F)C1.O=C(O)C(F)(F)F | 28
> 100 |  | 1.5 |  | 0.72 |  | > 100 | C[C@@H](c1ccc(-c2nccs2)cc1)[C@H](N)C(=O)N1CC[C@H](F)C1 | 
> 100 |  | 0.075 |  | 0.49 |  | > 100 | CCOC(=O)c1cccc(-c2ccc([C@H](C)[C@H](N)C(=O)N3CC[C@H](F)C3)cc2)c1 | 
> 100 |  | 0.086 |  | 0.38 |  | > 100 | C[C@@H](c1ccc(-c2ccccc2Cl)cc1)[C@H](N)C(=O)N1CC[C@H](F)C1 | 
> 100 |  | 0.44 |  | 0.12 |  | > 100 | CCOC(=O)c1ccc(-c2ccc([C@H](C)[C@H](N)C(=O)N3CC[C@H](F)C3)cc2)cc1 | 
